According to patent US10624895B2, “Methods of sensitizing a patient with glioma to a therapeutic agent by administering small hairpin RNA targeting PDZ-RHOGEF” (THE TRANSLATIONAL GENOMICS RESEARCH INSTITUTE, priority 2016, dated 2020):

Tested on: T98G cells overexpressing TROY
Test: TROY-induced transwell migration with erlotinib
Format: cell-based, human
Conditions: erlotinib (20 uM) 30 min prior to EGF (20 nM), 24 hours
Procedure: FIG. 40 depicts the impact of EGFR suppression by erlotinib on TROY-induced glioma cell migration. Parental T98G (copGFP) and T98G cells overexpressing TROY (TROY WT) were […] for 16 hours and placed into a transwell migration chamber. Cells were then pretreated with erlotinib (20 uM) for 30 min prior to EGF stimulation (20 nM). Cell migration was after 24 hours (* p<0.01).
Thus, the capacity of TROY to stimulate glioma cell invasion and increase TMZ and IR resistance could rely on the formation of a TROY-EGFR signaling complex. This association could activate, or potentiate, shared signaling pathways survival pathways as well as activate distinct TROY signaling pathways that mediate TROY receptor specific functional activities. Therefore, therapeutic approaches targeting TROY and/or both receptors may yield increased therapeutic benefit.

In the case of C#Cc1cccc(Nc2ncnc3cc(OCCOC)c(OCCOC)cc23)c1 [erlotinib], the “TROY-induced glioma cell migration” value is reported as “suppresses TROY-induced glioma cell migration”.
